Laboratory results published in PubChem BioAssay AID1919016 (Molecular Pharmacology Branch, DTP, NCI, 2023).

Tested on: NCI-H196 complex spheroid growth, percent test/control
Assay: Anticancer human tumor NCI-H196 cell line growth inhibition [AhR];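 further: seven days of drug exposure starting three days after plating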;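 on viability, T/C: 100% = DMSO vehicle control wells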
Conditions: for IC50: curve of first compound; for viability, T/C: stronger effect = lower value
Source text: Multicellular complex tumor spheroid response to aryl hydrocarbon receptor antagonists in combination with a variety of drugs and investigational agents in selected tumor cell lines
The current study was undertaken to assess response to aryl hydrocarbon receptor antagonists in combination with standard-of-care drugs and investigational agents in solid tumor complex spheroid models. Complex spheroids include a stromal component modeled by human endothelial cells (HUVEC) and fibroblasts modeled by human mesenchymal stem cells (MSCs). The concentration ranges selected for each drug and investigational agent were based upon clinically achievable concentrations if the clinical Cmax of the agent was known.
Compounds. The drugs and investigational agents: BAY 2416964 (NSC825713), GNF351 (NSC835774), CH-223191 (NSC835775), CPI-455 (NSC825282), aza-TdCyd (NSC777586), decitabine (NSC127716), belinostat (NSC758774), entinostat (NSC756642), pevonedistat (NSC761192), tazemetostat (NSC777109), talazoparib (NSC765396), olaparib (NSC753686), selinexor (NSC780203), nedisertib (M3814, NSC802822), bortezomib (NSC756655), venetoclax (NSC766270), doxorubicin (NSC123127), elimusertib (BAY189344, NSC800525), ceralasertib (AZD6738, NSC777638), TAK-243 (NSC785004), alisertib (NSC759677), etoposide (NSC141540), topotecan (NSC609699), eribulin (NSC707389), gemcitabine (NSC613327), carboplatin (NSC241240), cisplatin (NSC119875), and SN-38 (NSC673596) were obtained from the National Cancer Institute (NCI) Developmental Therapeutics Program Chemical Repository (32). The FDA-approved anticancer drug set is available from the Developmental Therapeutics Program at https://dtp.cancer.gov/organization/dscb/obtaining/available plates.htm. […] The stock solutions were prepared in dimethyl sulfoxide (DMSO, Sigma-Aldrich, St. Louis, MO, cat. D2650), except for the platinum compounds which were prepared in saline (Quality Biological, Gaithersburg, MD, cat. 114-055-101), at 800-fold the tested concentration and stored at -70 degrees C prior to their use. All drugs and investigational agents were tested over a range starting from a high concentration at or near the clinical Cmax and decreasing in half-log increments. If the clinical Cmax for an agent had not been determined, the highest concentration tested was 10 microM (Table 1).
Cell Culture. All cells were maintained in an incubator at 37 degrees C and 5% CO2 with 95% humidity. The PDC lines were cultured according to standard operating procedures established by the NCI PDMR (https://pdmr.cancer.gov). Briefly, all PDCs were thawed and cultured in Matrigel-coated flasks prepared with a working solution of 1X Ham's F-12 nutrient mix, without supplementation (Invitrogen, Waltham, MA, cat. 11765054), 100 U/mL penicillin-streptomycin (Invitrogen, cat. 15140122), and 2.5% Matrigel (Corning Inc., Corning, NY, cat. 354248) for the first three passages. All PDCs were cultured in complete DMEM/F-12 media containing advanced DMEM/F-12 (Invitrogen, cat. 12634028), 4.9% defined fetal bovine serum, heat inactivated (HyClone Laboratories Inc., Logan, UT, cat. SH30070.03HI), 389 ng/mL hydrocortisone (Sigma-Aldrich, cat. H4001), 9.7 ng/mL human EGF recombinant protein (Invitrogen, cat. PHG0313), 23.4 microg/mL adenine (Sigma-Aldrich, cat. A2786), 97.3 U/mL penicillin-streptomycin (Invitrogen, cat. 15140122), 1.9 mM L-glutamine (Invitrogen, cat. 25030081), and 9.7 microM Y-27632 dihydrochloride (Tocris Bioscience, Bristol, United Kingdom, cat. 1254). The PDCs were cultured in complete DMEM/F12 media without 10 microM Y-27632 dihydrochloride for at least two passages prior to the screen. The established cell lines NCI-H1341 and […] were cultured in DMEM/F-12, HEPES (Invitrogen, cat. 11330032), 5% defined fetal bovine serum (HyClone Laboratories Inc., cat. SH30070.03), ITS premix universal culture supplement [insulin (5 microg/mL), transferrin (5 microg/mL), and selenious acid (5 ng/mL)] […]

[1] = second compound 0.1 µM, first compound 0.0316 µM
[2] = second compound 0.1 µM, first compound 0.1 µM
[3] = second compound 0.1 µM, first compound 0.316 µM
[4] = second compound 0.1 µM, first compound 1 µM
[5] = second compound 0.1 µM, first compound 3.16 µM
[6] = second compound 0.1 µM, first compound 10 µM
[7] = second compound 0.316 µM, first compound 0.0316 µM
[8] = second compound 0.316 µM, first compound 0.1 µM
[9] = second compound 0.316 µM, first compound 0.316 µM
[10] = second compound 0.316 µM, first compound 1 µM
[11] = second compound 0.316 µM, first compound 3.16 µM
[12] = second compound 0.316 µM, first compound 10 µM
[13] = second compound 1 µM, first compound 0.0316 µM
[14] = second compound 1 µM, first compound 0.1 µM
[15] = second compound 1 µM, first compound 0.316 µM
[16] = second compound 1 µM, first compound 1 µM
[17] = second compound 1 µM, first compound 3.16 µM
[18] = second compound 1 µM, first compound 10 µM
[19] = second compound 3.16 µM, first compound 0.0316 µM
[20] = second compound 3.16 µM, first compound 0.1 µM
[21] = second compound 3.16 µM, first compound 0.316 µM
[22] = second compound 3.16 µM, first compound 1 µM
[23] = second compound 3.16 µM, first compound 3.16 µM
[24] = second compound 3.16 µM, first compound 10 µM
[25] = second compound 10 µM, first compound 0.0316 µM
[26] = second compound 10 µM, first compound 0.1 µM
[27] = second compound 10 µM, first compound 0.316 µM
[28] = second compound 10 µM, first compound 1 µM
[29] = second compound 10 µM, first compound 3.16 µM
[30] = second compound 10 µM, first compound 10 µM

IC50 (second compound 0.1 µM) [µM]	IC50 (second compound 0.316 µM) [µM]	IC50 (second compound 1 µM) [µM]	IC50 (second compound 3.16 µM) [µM]	IC50 (second compound 10 µM) [µM]	SMILES	viability, T/C [1] [%]	viability, T/C [2] [%]	viability, T/C [3] [%]	viability, T/C [4] [%]	viability, T/C [5] [%]	viability, T/C [6] [%]	viability, T/C [7] [%]	viability, T/C [8] [%]	viability, T/C [9] [%]	viability, T/C [13] [%]	viability, T/C [14] [%]	viability, T/C [19] [%]	viability, T/C [20] [%]	viability, T/C [25] [%]	viability, T/C [26] [%]	other results
> 10	> 10	> 10	> 10	> 10	COc1ccc([C@@H](O)c2cc(-c3ncnc4cc(N5CCOCC5)ccc34)c(F)cc2Cl)nn1 + Cc1cncc(-c2nc(NCCc3c[nH]c4ccccc34)c3ncn(C(C)C)c3n2)c1	102	101	97	91.4	78.7	84.7	95.3	99.6	101	104	111	105	108	69.8	90.4	viability, T/C [10]: 97.7%; viability, T/C [11]: 92.6%; viability, T/C [12]: 80.7%; viability, T/C [15]: 97.6%; viability, T/C [16]: 87.3%; viability, T/C [17]: 95.5%; viability, T/C [18]: 84%; viability, T/C [21]: 106%; viability, T/C [22]: 94.2%; viability, T/C [23]: 94%; viability, T/C [24]: 94.2%; viability, T/C [27]: 92.2%; viability, T/C [28]: 77.7%; viability, T/C [29]: 77.8%; viability, T/C [30]: 71%
> 10	> 10	> 10	> 10	> 10	NS(=O)(=O)OCC1CC(n2ccc3c(NC4CCc5ccccc54)ncnc32)CC1O (stereo not given) + Cc1cncc(-c2nc(NCCc3c[nH]c4ccccc34)c3ncn(C(C)C)c3n2)c1	73.7	65.6	57.3	48.6	77	68.2	80	63.3	56.3	74.3	66.7	81.8	81.8	102	91.7	viability, T/C [10]: 55.6%; viability, T/C [11]: 58.1%; viability, T/C [12]: 64.9%; viability, T/C [15]: 60.6%; viability, T/C [16]: 49.3%; viability, T/C [17]: 72%; viability, T/C [18]: 59.3%; viability, T/C [21]: 66.8%; viability, T/C [22]: 53.8%; viability, T/C [23]: 60.7%; viability, T/C [24]: 66.2%; viability, T/C [27]: 96.4%; viability, T/C [28]: 79.6%; viability, T/C [29]: 74.8%; viability, T/C [30]: 61.6%
> 10	> 10	> 10	> 10	> 10	NS(=O)(=O)OCC1CC(n2ccc3c(NC4CCc5ccccc54)ncnc32)CC1O (stereo not given) + CC(CO)NC(=O)c1cc(-c2ccc(Cl)cc2)nn(-c2cnn(C)c2)c1=O	85.4	79.8	67.1	61.3	62.9	60.2	82.8	85.2	68.8	87.2	74.4	81.4	83.7	90.7	96.9	viability, T/C [10]: 59.2%; viability, T/C [11]: 52.5%; viability, T/C [12]: 55.7%; viability, T/C [15]: 67.6%; viability, T/C [16]: 57.5%; viability, T/C [17]: 61.2%; viability, T/C [18]: 51.4%; viability, T/C [21]: 71.1%; viability, T/C [22]: 56.4%; viability, T/C [23]: 62.9%; viability, T/C [24]: 55.4%; viability, T/C [27]: 83.8%; viability, T/C [28]: 59.2%; viability, T/C [29]: 54%; viability, T/C [30]: 52.4%
> 0.1	> 0.1	> 0.1	> 0.1	> 0.1	Cn1ncnc1C1c2n[nH]c(=O)c3cc(F)cc(c23)NC1c1ccc(F)cc1 (stereo not given) + Cc1cncc(-c2nc(NCCc3c[nH]c4ccccc34)c3ncn(C(C)C)c3n2)c1	99.3	96	–	–	–	–	110	97.8	–	109	104	108	103	96.6	104	viability, T/C (second compound 0.1 µM, first compound 0.000316 µM): 110%; viability, T/C (second compound 0.1 µM, first compound 0.001 µM): 101%; viability, T/C (second compound 0.1 µM, first compound 0.00316 µM): 114%; viability, T/C (second compound 0.1 µM, first compound 0.01 µM): 104%; viability, T/C (second compound 0.316 µM, first compound 0.000316 µM): 112%; viability, T/C (second compound 0.316 µM, first compound 0.001 µM): 98.6%; viability, T/C (second compound 0.316 µM, first compound 0.00316 µM): 110%; viability, T/C (second compound 0.316 µM, first compound 0.01 µM): 107%; viability, T/C (second compound 1 µM, first compound 0.000316 µM): 103%; viability, T/C (second compound 1 µM, first compound 0.001 µM): 102%; viability, T/C (second compound 1 µM, first compound 0.00316 µM): 109%; viability, T/C (second compound 1 µM, first compound 0.01 µM): 111%; viability, T/C (second compound 3.16 µM, first compound 0.000316 µM): 111%; viability, T/C (second compound 3.16 µM, first compound 0.001 µM): 113%; viability, T/C (second compound 3.16 µM, first compound 0.00316 µM): 126%; viability, T/C (second compound 3.16 µM, first compound 0.01 µM): 96.1%; viability, T/C (second compound 10 µM, first compound 0.000316 µM): 94.5%; viability, T/C (second compound 10 µM, first compound 0.001 µM): 97.8%; viability, T/C (second compound 10 µM, first compound 0.00316 µM): 91.7%; viability, T/C (second compound 10 µM, first compound 0.01 µM): 112%
